Marks after values point to notes of the source that are not given here.
Experiments:
murine MGL = target: T1, murine MGL (Mus musculus, UniProt O35678); assay: MG hydrolase activity, purified MGL, rac-1-(3)-oleoylglycerol substrate; assay type: biochemical; details: Fig. 2C
T1 construct: made in house; host or cells: E. coli, purified
T1 sequence (O35678 1-303): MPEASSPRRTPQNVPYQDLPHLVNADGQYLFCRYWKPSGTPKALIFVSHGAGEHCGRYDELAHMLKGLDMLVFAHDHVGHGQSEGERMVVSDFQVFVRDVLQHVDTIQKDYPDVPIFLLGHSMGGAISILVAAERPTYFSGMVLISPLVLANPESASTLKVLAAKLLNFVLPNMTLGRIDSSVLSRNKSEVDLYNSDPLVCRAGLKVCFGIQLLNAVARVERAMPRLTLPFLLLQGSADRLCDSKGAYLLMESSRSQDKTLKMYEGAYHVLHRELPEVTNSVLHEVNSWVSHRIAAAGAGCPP
Procedure: (§1) • Figure 1. Structure of compounds 1 to 3 (reference) and compound 4 (atglistatin) and effect on ATGL activity. For determination of lipase activity, lysates of E. coli overexpressing recombinant strep-tagged ATGL and CGI-58 were incubated with a substrate containing radiolabeled [9,10-3H(N)]-triolein. Subsequently, FA were extracted and quantified by liquid scintillation counting. Lysates of cells expressing empty vector were set as blank. Inhibitors were solubilized in DMSO and added at the indicated concentrations. DMSO alone was used as negative control. (A) Structure and IC50 values of compounds 1-4. (B) Dose-dependent inhibition of ATGL in the presence of compound 3 and 4. […] (C) Lineweaver-Burk plots for kinetic analysis of ATGL inhibition. Experiments were performed at varying concentrations of substrate (0.05 - 3 mM) in presence and absence of compound 4 (Atglistatin). […] Lipase activity of ATGL, HSL, lipoprotein lipase, and pancreatic lipase was determined using triolein as substrate. MGL activity was detected in the presence of rac-(1,3)-monooleoylglycerol as substrate. […] The release of FA (A) and glycerol (B) in the media was determined using commercial kits. […] At the indicated timepoints blood was taken retroorbitally and plasma parameters were measured using commercial kits. […] 8 h after gavage blood was taken retroorbitally and plasma parameters were measured using commercial kits. […]

3T3-L1 adipocytes = assay: Forskolin-stimulated lipolysis of differentiated 3T3-L1 adipocytes; assay type: cell-based, mouse; details: 10 µM forskolin-stimulated, dose dependent (0-50 µM)
Procedure: as §1

purified bovine LPL = target: T2, purified bovine LPL (Bos taurus, UniProt P11151); assay: Lipoprotein lipase activity, purified enzyme, triolein substrate; assay type: biochemical; details: Fig. 2D
T2 construct: purchased Sigma
T2 sequence (P11151 29-478): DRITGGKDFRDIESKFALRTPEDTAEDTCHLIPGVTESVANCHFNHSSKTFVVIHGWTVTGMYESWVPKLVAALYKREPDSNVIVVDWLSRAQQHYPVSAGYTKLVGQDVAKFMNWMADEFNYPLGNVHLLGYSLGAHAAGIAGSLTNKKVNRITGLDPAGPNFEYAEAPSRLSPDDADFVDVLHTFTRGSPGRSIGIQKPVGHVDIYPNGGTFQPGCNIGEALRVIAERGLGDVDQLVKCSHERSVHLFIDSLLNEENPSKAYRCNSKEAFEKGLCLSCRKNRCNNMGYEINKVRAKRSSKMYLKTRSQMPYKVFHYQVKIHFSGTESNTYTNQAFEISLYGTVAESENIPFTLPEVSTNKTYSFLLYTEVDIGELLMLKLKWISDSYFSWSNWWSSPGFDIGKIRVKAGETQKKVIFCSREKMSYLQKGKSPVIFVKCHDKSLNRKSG
Procedure: as §1

[1] = Inhibition of lipolysis in vivo, oral gavage in fasted mice, plasma parameters; design: species or system C57BI/6J mice
Procedure: • Figure 1. Structure of compounds 1 to 3 (reference) and compound 4 (atglistatin) and effect on ATGL activity. For determination of lipase activity, lysates of E. coli overexpressing recombinant strep-tagged ATGL and CGI-58 were incubated with a substrate containing radiolabeled [9,10-3H(N)]-triolein. Subsequently, FA were extracted and quantified by liquid scintillation counting. Lysates of cells expressing empty vector were set as blank. Inhibitors were solubilized in DMSO and added at the indicated concentrations. DMSO alone was used as negative control. (A) Structure and IC50 values of compounds 1-4. (B) Dose-dependent inhibition of ATGL in the presence of compound 3 and 4. […] (C) Lineweaver-Burk plots for kinetic analysis of ATGL inhibition. Experiments were performed at varying concentrations of substrate (0.05 - 3 mM) in presence and absence of compound 4 (Atglistatin). […] Data are presented as mean +/-S.D. of triplicate determinations. Data for compound 4 are representative for at least three independent experiments. • Figure 2. Selectivity of Atglistatin. Lipase activity of ATGL, HSL, lipoprotein lipase, and pancreatic lipase was determined using triolein as substrate. MGL activity was detected in the presence of rac-(1,3)-monooleoylglycerol as substrate. Inhibitors were solubilized in DMSO and added at the indicated concentrations. DMSO alone was used as negative control. (A) Dose-dependent inhibition of TG hydrolase activity in WAT lysates obtained from wild-type and ATGL-ko mice. (B) Inhibition of TG hydrolase activity in wild-type WAT lysates by Atglistatin (40 µM) and by the HSL inhibitor Hi 76-0079 (20 µM). (C) Effect of Atglistatin on murine MGL (purified from E. coli), and murine HSL (overexpressed in COS-7 lysates) activity. (D) Effect of Atglistatin on purified bovine LPL (Sigma) and pancreatic lipase (from porcine pancreas, Sigma). Data are presented as mean +/- S.D. of triplicate determinations and are representative for at least three independent experiments (p < 0.05 **, p < 0.01; ***, p < 0.001). • Figure 3 Inhibition of lipolysis in 3T3-L1 adipocytes and WAT organ cultures. (A,B) Differentiated 3T3 cells were preincubated with the indicated concentrations of Atglistatin. Thereafter, the medium was replaced by DMEM containing 2% BSA (fatty acid free), 10 µM forskolin, in the presence or absence of inhibitors. The release of FA (A) and glycerol (B) in the media was determined using commercial kits. Basal FA and glycerol release (not shown) was barely detectable under the applied conditions. Data are presented as mean +/- SD and are representative for 2 independent experiments. (C-F) Effect of Atglistatin on WAT basal (C, D) and forskolin-stimulated (E, F) lipolysis. Adipose tissue pieces (∼15 mg, n=5 for each concentration) of wild-type mice were cultured for 8 h in DMEM containing 2 % FA-free BSA and the indicated concentrations of Atglistatin. Subsequently, the medium was replaced by identical fresh medium and samples were collected after incubation for another hour in the presence or in the absence of 10 µM forskolin. Atglistatin was solubilized in DMSO and DMSO alone was used as negative control. Data are presented as mean +/- S.D. (*, p < 0.05 **, p < 0.01; ***, p < 0.001). • Figure 4 Inhibition of lipolysis in vivo. (A,B) Time dependent effect of Atglistatin on plasma free fatty acids (FFA) and glycerol levels of mice. C57BI6 mice were fasted overnight (ON) and received an oral gavage containing 100 µmol/kg Atglistatin dissolved in olive oil, or olive oil as control. At the indicated timepoints blood was taken retroorbitally and plasma parameters were measured using commercial kits. (C,D) Dose dependent effect of Atglistatin on plasma FFA and glycerol levels of mice. C57BI6 mice were fasted ON and received an oral gavage containing 0, 50, 100, or 200 µmol/kg Atglistatin dissolved in olive oil, or olive oil as control. 8 h after gavage blood was taken retroorbitally and plasma parameters were measured using commercial kits. […]

[2] = plasma, 200 µmol/kg oral gavage, after 8 h, mean ± S.D., n = 7
[3] = up to, 50, 100 or 200 µmol/kg oral gavage, 8 h after gavage

Structure (SMILES): CN(C)C(=O)Nc1cccc(-c2ccc(N(C)C)cc2)c1 [Atglistatin, atglistatin]
- effect on MGL activity (murine MGL): only minor effects
- inhibition of FA release (3T3-L1 adipocytes): almost complete inhibition
- inhibition of glycerol release (3T3-L1 adipocytes): ~90%
- effect on lipoprotein lipase (purified bovine LPL): only minor effects
- plasma levels for glycerol, time course ([1]; 100 µmol/kg oral gavage in olive oil, between 4 h and 8 h after gavage): time dependent decrease
- plasma levels for FA, time course ([1]; 100 µmol/kg oral gavage in olive oil, between 4 h and 12 h after gavage): time dependent decrease
- FFA [1, 2]: 0.53 ± 0.05*** mmol/L
- Triglycerides [1, 2]: 0.33 ± 0.14** mmol/L
- dose-dependent decrease in plasma FA levels [1, 3]: up to 50%
- dose-dependent decrease in plasma glycerol levels [1, 3]: ≤ 70%
